Measured values published in ChEMBL document CHEMBL1156925, “Synthesis, structure-activity relationship and crystallographic studies of 3-substituted indolin-2-one RET inhibitors” (Bioorg Med Chem, 2010).
pIC50: −log10 of the molar value.

Experiments:
cells [1] = conditions: Mus musculus, BaPTC2
[2] = molecular target: Tyrosine-protein kinase ABL1 (Homo sapiens, UniProt P00519)
cells [3] = conditions: Mus musculus, BaF3
[4] = molecular target: T1, Receptor-type tyrosine-protein kinase FLT3 (Homo sapiens, UniProt P36888); assay: Inhibition of FLT3 by ELISA-based kinase assay
T1 sequence (P36888 whole entry): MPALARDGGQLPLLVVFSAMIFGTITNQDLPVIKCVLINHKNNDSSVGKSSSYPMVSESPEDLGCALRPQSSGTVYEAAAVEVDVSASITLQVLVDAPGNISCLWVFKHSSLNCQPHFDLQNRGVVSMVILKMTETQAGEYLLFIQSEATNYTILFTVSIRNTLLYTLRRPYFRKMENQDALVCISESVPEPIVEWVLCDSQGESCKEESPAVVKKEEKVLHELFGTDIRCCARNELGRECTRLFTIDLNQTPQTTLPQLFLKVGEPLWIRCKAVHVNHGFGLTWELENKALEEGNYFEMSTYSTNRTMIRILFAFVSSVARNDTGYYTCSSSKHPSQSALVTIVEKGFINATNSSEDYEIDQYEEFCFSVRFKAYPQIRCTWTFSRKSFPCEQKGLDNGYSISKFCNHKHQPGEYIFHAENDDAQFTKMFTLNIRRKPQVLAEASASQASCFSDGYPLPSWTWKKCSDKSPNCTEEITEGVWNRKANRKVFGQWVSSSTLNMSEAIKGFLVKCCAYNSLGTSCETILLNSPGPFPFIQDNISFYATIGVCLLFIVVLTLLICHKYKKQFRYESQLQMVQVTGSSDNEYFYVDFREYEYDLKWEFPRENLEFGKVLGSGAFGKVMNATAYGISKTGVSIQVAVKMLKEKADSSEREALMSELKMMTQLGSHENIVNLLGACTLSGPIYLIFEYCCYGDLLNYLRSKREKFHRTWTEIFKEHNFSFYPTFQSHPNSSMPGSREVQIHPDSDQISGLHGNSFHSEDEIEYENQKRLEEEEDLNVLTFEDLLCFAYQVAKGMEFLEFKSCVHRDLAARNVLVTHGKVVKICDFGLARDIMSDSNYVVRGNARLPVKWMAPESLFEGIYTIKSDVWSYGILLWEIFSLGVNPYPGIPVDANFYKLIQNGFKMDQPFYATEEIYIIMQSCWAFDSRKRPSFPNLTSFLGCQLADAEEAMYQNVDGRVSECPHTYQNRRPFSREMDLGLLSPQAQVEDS

[5] = molecular target: ALK tyrosine kinase receptor (Homo sapiens, UniProt Q9UM73); assay: Inhibition of ALK by ELISA-based kinase assay
ALK tyrosine kinase receptor, sequence (Q9UM73 whole entry): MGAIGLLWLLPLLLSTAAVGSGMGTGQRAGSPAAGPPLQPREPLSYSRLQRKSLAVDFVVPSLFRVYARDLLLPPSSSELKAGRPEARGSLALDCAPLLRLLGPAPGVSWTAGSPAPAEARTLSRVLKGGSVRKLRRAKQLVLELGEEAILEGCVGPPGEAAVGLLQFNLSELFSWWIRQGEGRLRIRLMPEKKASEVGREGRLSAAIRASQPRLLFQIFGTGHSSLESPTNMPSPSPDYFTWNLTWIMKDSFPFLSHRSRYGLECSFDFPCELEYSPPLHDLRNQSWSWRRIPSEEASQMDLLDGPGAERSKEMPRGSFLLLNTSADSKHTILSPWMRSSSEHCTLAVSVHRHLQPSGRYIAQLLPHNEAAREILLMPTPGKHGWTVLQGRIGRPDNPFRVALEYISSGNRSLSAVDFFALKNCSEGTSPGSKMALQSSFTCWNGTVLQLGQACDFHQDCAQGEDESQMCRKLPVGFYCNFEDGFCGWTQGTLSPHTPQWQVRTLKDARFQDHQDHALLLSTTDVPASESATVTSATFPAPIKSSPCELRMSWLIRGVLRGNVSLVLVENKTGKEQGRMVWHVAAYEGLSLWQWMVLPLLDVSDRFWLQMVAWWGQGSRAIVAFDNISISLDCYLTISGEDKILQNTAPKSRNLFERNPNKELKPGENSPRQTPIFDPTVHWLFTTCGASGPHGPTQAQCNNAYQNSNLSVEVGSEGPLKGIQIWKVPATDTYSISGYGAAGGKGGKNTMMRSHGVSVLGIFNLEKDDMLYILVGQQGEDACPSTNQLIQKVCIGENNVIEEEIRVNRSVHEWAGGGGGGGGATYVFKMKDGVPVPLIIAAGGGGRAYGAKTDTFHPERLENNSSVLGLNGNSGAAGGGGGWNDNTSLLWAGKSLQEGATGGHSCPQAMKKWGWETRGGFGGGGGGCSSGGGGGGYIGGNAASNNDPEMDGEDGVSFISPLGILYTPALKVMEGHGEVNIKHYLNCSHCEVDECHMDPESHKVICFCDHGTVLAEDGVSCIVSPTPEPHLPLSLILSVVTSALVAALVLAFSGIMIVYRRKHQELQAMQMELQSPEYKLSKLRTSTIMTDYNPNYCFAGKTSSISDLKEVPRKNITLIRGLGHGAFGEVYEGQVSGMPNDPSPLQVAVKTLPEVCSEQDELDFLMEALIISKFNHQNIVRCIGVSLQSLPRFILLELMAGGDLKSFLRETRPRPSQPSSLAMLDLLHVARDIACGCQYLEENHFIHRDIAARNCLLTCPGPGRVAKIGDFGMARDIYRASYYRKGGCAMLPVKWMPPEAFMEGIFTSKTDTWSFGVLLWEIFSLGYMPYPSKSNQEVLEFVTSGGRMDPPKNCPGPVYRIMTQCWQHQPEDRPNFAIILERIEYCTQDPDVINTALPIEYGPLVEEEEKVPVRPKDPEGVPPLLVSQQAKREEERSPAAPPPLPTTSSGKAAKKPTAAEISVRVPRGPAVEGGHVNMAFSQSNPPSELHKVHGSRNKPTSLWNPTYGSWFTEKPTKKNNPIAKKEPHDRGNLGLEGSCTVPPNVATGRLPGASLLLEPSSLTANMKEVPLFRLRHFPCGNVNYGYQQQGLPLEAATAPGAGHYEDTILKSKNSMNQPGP

Tyrosine-protein kinase ABL1, sequence (P00519 whole entry): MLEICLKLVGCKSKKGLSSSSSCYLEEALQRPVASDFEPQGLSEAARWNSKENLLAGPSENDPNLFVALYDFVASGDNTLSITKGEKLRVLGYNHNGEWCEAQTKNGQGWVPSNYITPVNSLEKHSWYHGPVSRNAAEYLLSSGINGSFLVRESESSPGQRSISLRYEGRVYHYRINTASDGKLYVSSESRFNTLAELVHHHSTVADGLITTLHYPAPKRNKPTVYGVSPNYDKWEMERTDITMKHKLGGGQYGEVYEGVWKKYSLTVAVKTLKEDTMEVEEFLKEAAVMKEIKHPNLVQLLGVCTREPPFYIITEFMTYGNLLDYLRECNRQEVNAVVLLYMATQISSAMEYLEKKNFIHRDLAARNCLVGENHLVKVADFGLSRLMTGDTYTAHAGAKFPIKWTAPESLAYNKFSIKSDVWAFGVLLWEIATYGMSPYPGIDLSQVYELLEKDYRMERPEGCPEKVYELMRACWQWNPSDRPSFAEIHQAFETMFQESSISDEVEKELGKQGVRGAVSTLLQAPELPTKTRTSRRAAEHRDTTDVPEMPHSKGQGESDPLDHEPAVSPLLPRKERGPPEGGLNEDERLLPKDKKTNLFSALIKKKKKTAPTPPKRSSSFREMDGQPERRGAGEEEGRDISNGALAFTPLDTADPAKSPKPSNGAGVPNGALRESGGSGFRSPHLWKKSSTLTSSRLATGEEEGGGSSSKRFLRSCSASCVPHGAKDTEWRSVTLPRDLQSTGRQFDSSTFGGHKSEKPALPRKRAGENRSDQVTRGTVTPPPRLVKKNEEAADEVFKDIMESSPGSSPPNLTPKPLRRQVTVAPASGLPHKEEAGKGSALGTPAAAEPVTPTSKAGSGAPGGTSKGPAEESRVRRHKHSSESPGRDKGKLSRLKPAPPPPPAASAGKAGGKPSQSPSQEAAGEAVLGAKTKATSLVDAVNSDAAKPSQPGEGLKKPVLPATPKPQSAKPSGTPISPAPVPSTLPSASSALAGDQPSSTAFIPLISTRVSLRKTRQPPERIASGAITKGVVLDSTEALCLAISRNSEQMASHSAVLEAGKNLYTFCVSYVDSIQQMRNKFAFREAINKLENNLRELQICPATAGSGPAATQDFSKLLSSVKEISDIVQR

Compound	pIC50 (cells [1])	pIC50 [2]	pIC50 (cells [3])	pIC50 [4]	pIC50 [5]
CCN(CC)CCNC(=O)c1c(C)[nH]c(/C=C2\C(=O)Nc3ccc(F)cc32)c1C [SUNITINIB]	6.66		5.92		
CCOC(=O)c1c(C)[nH]c(/C=C2\C(=O)Nc3ccccc32)c1C	7.60	4.72	5.59	5.37	5.27
O=C1Nc2ccccc2/C1=C\c1ccc(O)cc1	4.80	< 4.30	< 4.30	5.74	< 4.30

Now from value to compound:

pIC50 (cells [1])	pIC50 [2]	pIC50 (cells [3])	pIC50 [4]	pIC50 [5]	Compound
5.00	< 4.30	5.00	6.40	< 4.30	Cc1cccc2c1/C(=C/c1ccc(N(C)C)c3ccccc13)C(=O)N2
6.80	< 4.30	6.74	5.06	4.74	CN(C)S(=O)(=O)c1ccc2c(c1)/C(=C/c1cc3c([nH]1)CCCC3)C(=O)N2
